Assay results: PubChem BioAssay (NCI)
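Five concentrations, 48 hours, 96-well plates. TGI denotes the concentration required for complete inhibition of growth.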

Legend:
Assay in all cases: growth of human tumour cells (NCI), 48 h
[1] = test system: NCI-H23 lung
[2] = test system: PC-3 prostate
[3] = test system: OVCAR-8 ovarian
[4] = test system: CCRF-CEM leukemia
[5] = test system: TK-10 renal
[6] = test system: MDA-N
[7] = test system: SNB-75 CNS
[8] = test system: NCI/ADR-RES ovarian
[9] = test system: OVCAR-3 ovarian
[10] = test system: MOLT-4 leukemia
[11] = test system: SF-268 CNS
[12] = test system: U251 CNS
[13] = test system: A498 renal
[14] = test system: SK-MEL-2 melanoma
[15] = test system: HOP-92 NSCLC
[16] = test system: SN12C renal
[17] = test system: COLO 205 colon
[18] = test system: EKVX NSCLC
[19] = test system: UACC-257 melanoma
[20] = test system: MCF7 breast
[21] = test system: RXF 393 renal
[22] = test system: SF-295 CNS
[23] = test system: SF-539 CNS
[24] = test system: SW-620 colon
[25] = test system: NCI-H460 lung
[26] = test system: A549 NSCLC
[27] = test system: RPMI-8226 leukemia
[28] = test system: MALME-3M melanoma
[29] = test system: ACHN renal
[30] = test system: SK-OV-3 ovarian
[31] = test system: NCI-H522 lung
[32] = test system: OVCAR-4 ovarian
[33] = test system: M14 melanoma
[34] = test system: 786-0 renal
[35] = test system: BT-549 breast
[36] = test system: KM12 colon
[37] = test system: T-47D breast
[38] = test system: HCT-116 colon
[39] = test system: SR leukemia
[40] = test system: UACC-62 melanoma
[41] = test system: LOX IMVI melanoma
[42] = test system: NCI-H226 lung
[43] = test system: IGROV1 ovarian
[44] = test system: HL-60(TB) leukemia
[45] = test system: SNB-19 CNS
[46] = test system: HCC-2998 colon
[47] = test system: HOP-62 NSCLC
[48] = test system: CAKI-1 renal
[49] = test system: HCT-15 colon
[50] = test system: OVCAR-5 ovarian
[51] = test system: HS 578T breast
[52] = test system: MDA-MB-435
[53] = test system: SK-MEL-5 melanoma
[54] = test system: DU-145 prostate
[55] = test system: HT29 colon
[56] = test system: SK-MEL-28 melanoma
[57] = test system: MDA-MB-231 breast
[58] = test system: M19-MEL melanoma
[59] = test system: DMS 273 small cell lung
[60] = test system: SNB-78 CNS
[61] = test system: DLD-1 colon
[62] = test system: K-562 leukemia
[63] = test system: HOP-18 NSCLC
[64] = test system: KM20L2 colon
[65] = test system: UO-31 renal
[66] = test system: DMS 114 small cell lung

## O=c1c2cccnc2[nH]c2ccc3scnc3c12
[1]
  TGI: > 10 µM
[2]
  TGI: > 10 µM
[3]
  TGI: > 10 µM
[4]
  TGI: > 10 µM
[5]
  TGI: > 10 µM
[6]
  TGI: > 10 µM
[7]
  TGI: > 10 µM
[8]
  TGI: > 10 µM
[9]
  TGI: > 10 µM
[10]
  TGI: > 10 µM
[11]
  TGI: > 10 µM
[12]
  TGI: > 10 µM
[13]
  TGI: > 10 µM
[14]
  TGI: > 10 µM
[15]
  TGI: > 10 µM
[16]
  TGI: > 10 µM
[17]
  TGI: > 10 µM
[18]
  TGI: > 10 µM
[19]
  TGI: > 10 µM
[20]
  TGI: > 10 µM
[21]
  TGI: 8.71 µM
[22]
  TGI: > 10 µM
[23]
  TGI: > 10 µM
[24]
  TGI: > 10 µM
[25]
  TGI: > 10 µM
[26]
  TGI: > 10 µM
[27]
  TGI: > 10 µM
[28]
  TGI: > 10 µM
[29]
  TGI: > 10 µM
[30]
  TGI: > 10 µM
[31]
  TGI: > 10 µM
[32]
  TGI: > 10 µM
[33]
  TGI: > 10 µM
[34]
  TGI: > 10 µM
[35]
  TGI: > 10 µM
[36]
  TGI: > 10 µM
[37]
  TGI: > 10 µM
[38]
  TGI: 9.79 µM
[39]
  TGI: > 10 µM
[40]
  TGI: > 10 µM
[41]
  TGI: > 10 µM
[42]
  TGI: > 10 µM
[43]
  TGI: > 10 µM
[44]
  TGI: > 10 µM
[45]
  TGI: > 10 µM
[46]
  TGI: > 10 µM
[47]
  TGI: > 10 µM
[48]
  TGI: > 10 µM
[49]
  TGI: > 10 µM
[50]
  TGI: > 10 µM
[51]
  TGI: > 10 µM
[52]
  TGI: > 10 µM
[53]
  TGI: > 10 µM
[54]
  TGI: > 10 µM
[55]
  TGI: > 10 µM
[56]
  TGI: > 10 µM
[57]
  TGI: > 10 µM

## COc1ccccc1/C=C/C(=O)c1sc(-c2cccnc2)nc1C
[1]
  TGI: > 100 µM
[58]
  TGI: > 100 µM
[3]
  TGI: > 100 µM
[4]
  TGI: > 100 µM
[5]
  TGI: > 100 µM
[7]
  TGI: > 100 µM
[9]
  TGI: > 100 µM
[10]
  TGI: > 100 µM
[11]
  TGI: > 100 µM
[12]
  TGI: > 100 µM
[13]
  TGI: > 100 µM
[14]
  TGI: > 100 µM
[15]
  TGI: > 100 µM
[16]
  TGI: > 100 µM
[17]
  TGI: > 100 µM
[18]
  TGI: > 100 µM
[19]
  TGI: > 100 µM
[21]
  TGI: > 100 µM
[22]
  TGI: > 100 µM
[23]
  TGI: > 100 µM
[24]
  TGI: > 100 µM
[25]
  TGI: > 100 µM
[26]
  TGI: > 100 µM
[27]
  TGI: > 100 µM
[59]
  TGI: > 100 µM
[28]
  TGI: > 100 µM
[29]
  TGI: > 100 µM
[30]
  TGI: > 100 µM
[31]
  TGI: > 100 µM
[34]
  TGI: > 100 µM
[36]
  TGI: > 100 µM
[60]
  TGI: > 100 µM
[40]
  TGI: > 100 µM
[41]
  TGI: > 100 µM
[61]
  TGI: > 100 µM
[42]
  TGI: > 100 µM
[43]
  TGI: > 100 µM
[62]
  TGI: > 100 µM
[44]
  TGI: > 100 µM
[46]
  TGI: > 100 µM
[47]
  TGI: > 100 µM
[48]
  TGI: > 100 µM
[63]
  TGI: > 100 µM
[64]
  TGI: > 100 µM
[49]
  TGI: > 100 µM
[50]
  TGI: > 100 µM
[53]
  TGI: > 100 µM
[65]
  TGI: > 100 µM
[55]
  TGI: > 100 µM
[56]
  TGI: > 100 µM
[66]
  TGI: > 100 µM
